How the values were obtained:
CD4+ T cells [1] = test: INFγ-mediated STAT1 phosphorylation in CD4+ T cells; type: cell-based, mouse; details: 20 ng/mL INFγ; Salp15 50 μg/mL
Method: For tyrosine phosphorylation western analysis, cells were lysed in 60 mM Tris (pH 7.4) containing 150 mM NaCl, 5 mM EDTA, 1 mM EGTA, 1 mM β-glycerol phosphate, 2.5 mM sodium pyrophosphate, 25 mM NaF, 2 mM sodium orthovanadate, 1% Triton-X 100, 0.25% sodium deoxycholate, 1 mM PMSF and protease inhibitors for 15 min on ice, sonicated 4×5 sec and incubated at 37° C. for 10 min. The lysate was cleared by centrifugation and boiled in SDS-sample buffer. The samples were subjected to SDS-PAGE, transferred to a nitrocellulose membrane and immunoblotted with anti-pTyr, anti-pPLCγ1 and anti-Vav1, anti-pSrc family (Tyr^416) to measure p-Lck^394 (Alonso et al., 2004), anti-Lck, anti-pZap70 (Tyr^319), anti-Zap70, p44/42 and p44/42 (phopho-Tyr^204/Thr^202). Vav1 was immunoprecipitated using anti-Vav1 and protein A-agarose beads overnight, subjected to SDS-PAGE followed by immunoblotting with anti-pTyr or anti-Vav1. To examine the effect of Salp15 on T cell stimulation with INFγ, CD4^+ T cells were preincubated with Salp15 at 50 μg/mL followed by activation with 20 ng/mL of mouse recombinant INFγ (R & D Systems, Minneapolis, Minn., U.S.A.) for 30 min at 37° C. The cells were lysed as above and subjected to SDS-PAGE and immunoblotting with anti-pSTAT1 and anti-STAT1.

CD4 on HeLa-CD4 cells = molecular target: T1, CD4 on HeLa-CD4 cells (Homo sapiens, UniProt P01730); test: Salp15488 binding to HeLa-CD4 and HeLa cells (flow cytometry, confocal microscopy)
T1 construct: host or cells: HeLa
Method: For colocalization experiments, Jurkat and CD4^+ T cells were cytospun as described herein. HeLa and HeLa-CD4 cells were grown on chamber slides. The cells were fixed and stained with anti-CD4 and Salp15 as follows. Purified Salp15 was labeled using Alexa-488 with the Protein Labeling Kit (Molecular Probes) according to the manufacturer's instructions. Fixed cells were blocked with 5% normal serum and anti-CD16/CD32 (1:100) in PBS, incubated with 1 μg of monoclonal biotinylated anti-CD4 (L3T4) (BD Biosciences Pharmingen) followed by streptavidin594 staining. The cells were then stained with 20 μg/mL of Salp15488. For competition assays, cells were first blocked with 5% normal serum, incubated with either polyclonal anti-CD4 antibody, MT310, OKT4, normal rabbit IgG, Salp15 (0.5 mg/mL) or lysozyme (0.5 mg/mL) followed by staining with Salp15488. All samples were mounted in a GVA Mount (Zymed, San Francisco, Calif., U.S.A.) and visualized with an Olympus Confocal microscope equipped with Fluoview 3.0 software.
Actin polymerization assay was performed as described earlier (Krishnan et al., 2004). […] The cells were washed, resuspended in PBS and analyzed for F-actin content on a FACSCalibur with CellQuest software (Beckton Dickinson, Mountain View, Calif., U.S.A.). […] The cells were washed twice with PBS and analyzed by flow cytometry.

AP-1 DNA binding = details: Anguita et al., 2002; cited from earlier work
CD4+ T cells [2] = test: Lipid raft redistribution (CTB594 staining, receptor capping) in activated CD4+ T cells; type: cell-based, mouse; details: Salp15 treatment prior to anti-CD3/CD28 stimulation, murine cells
Method: Naïve CD4+ T cells from C3H/HeN, Balb/c, and B10.BR mice were purified as previously described (Anguita et al., 2002). CD4+ T cells were preincubated in Click's modified Bruff's Medium (Sigma Chemical Co., St. Louis, Mo., U.S.A.) for 10 minutes at 37° C. with and without Salp15 (50 μg/mL) and stimulated for 20 min or the indicated times at 37° C. with 10 μg/mL of anti-CD3ε, 1 μg/mL of anti-CD28, and 10 μg/mL of anti-armenian and syrian hamster IgG (BD Biosciences Pharmingen, San Jose, Calif., U.S.A.). Jurkat (E6-1) cells were stimulated using 5 μg/mL of OKT3 mAb (eBioscience, San Diego, Calif., U.S.A.) and 1 μg/mL of anti-human CD28 cross linked with 5 μg/mL anti-mouse IgG for the indicated times.
For the visualization of lipid rafts, phospho-tyrosine, and cytoskeleton reorganization, CD4^+, CD8^+ or Jurkat cells were cytospun for 10 minutes at 1000 RPM onto positively charged microslides (Fisher Scientific, Hampton, N.H., U.S.A.). The cells were fixed with 3.7% paraformaldehyde (Sigma Chemical Co.) for 15 minutes and stained with CTB594 (Molecular Probes, Eugene, Oreg., U.S.A.), AlexaFluor488 labeled phalloidin (Molecular Probes) or (1:50) biotin-conjugated anti-p-Tyr (PY99) followed by Streptavidin-AlexaFluor594 (1:100, Molecular Probes). For p-LAT and p-PLCγ1 staining, fixed cells were treated with PBS containing 0.1% Triton-X 100 and 100 mM glycine for 15 min at room temperature and stained using rabbit p-LAT (Tyr^191) or rabbit anti-p-PLCγ1 (Tyr^783) probed with anti-rabbit IgG488 (Molecular Probes).
For receptor capping studies, mouse primary B and CD11^+ cells were purified by positive selection using biotin anti-mouse CD45R/B220 clone RA3-6B2 and biotin anti-mouse CD11b clone M1/70 (BD Biosciences Pharmingen) respectively, followed by incubation with magnetic microbeads. The cells were analyzed for receptor capping using 25 μg/mL anti-mouse IgM and 25 μg/mL anti-mouse CD16/CD32 respectively, cross-linked with 25 μg/mL of anti-rat IgG594 for 10 min in the presence or absence of 50 μg/mL of Salp15. […]

Salp15: secreted salivary protein from Ixodes scapularis, SEQ ID NO: 2; recombinant His-tagged, produced in Drosophila S2 cells
INFγ-mediated phosphorylation of STAT1 (CD4+ T cells [1]): unaffected | Salp15 binding on untransfected HeLa cells (CD4 on HeLa-CD4 cells; confocal microscopy): but not in untransfected cells | Salp15 binding to HeLa-CD4 cells compared to non-transfected controls (CD4 on HeLa-CD4 cells; flow cytometry): increase | AP-1 DNA binding activation (AP-1 DNA binding): does not affect | Lipid raft clustering (CD4+ T cells [2]): reduced

Reference: US8119589B2, “Modulation of CD4+ T cell responses by a tick saliva protein, Salp15 and polypeptides derived therefrom” (University of North Carolina at Charlotte, priority 2004, dated 2012)
